Consider 23 compounds from patent US11807644B2 (PMV Pharmaceuticals, Inc., priority 2020, dated 2023).

The target in this assay is T1, recombinant His-tag Y220C p53 DBD protein (Homo sapiens, UniProt P04637, Y220C).
T1 construct: recombinant His-tag Y220C p53 DBD protein (amino acids #˜94-312)
As to the kind of experiment: In vitro DNA binding activity assay (TR-FRET): binding of His-tag Y220C p53 DBD to biotin-labeled consensus DNA. The class given is biochemical. The settings on record: for Y220C SC150 (μM): SC150 = concentration to increase DNA binding by […], His-tag Y220C p53 DBD, biotin-labeled consensus DNA; for SC150 (μM): concentration to increase DNA binding by […], incubated at either 27° C. or 29° C. for 60 min. On the technique in general: Time-resolved FRET reads energy transfer from a long-lived donor to a nearby acceptor.

For `CN1CCC(n2ccc(C(=O)NCc3nc(-c4cc5c(N[C@@H]6CCN(C)C[C@@H]6F)cccc5n4CC(F)(F)F)no3)c2)CC1` [Compound 363B, N-{[3-(4-{[(3S,4R)-3-fluoro-1-methylpiperidin-4-yl]amino)-1-(2,2,2-trifluoroethyl)-1H-indol-2-yl)-1,2,4-oxadiazol-5-yl]methyl)-1-(1-methylpiperidin-4-yl)-1H-pyrrole-3-carboxamide], the “Y220C SC150 (μM)” value is listed as “* (* = 0 μM ≤ SC150 < 0.1 μM)”.

For the compound `CN1CC[C@@H](Nc2cccc3c2cc(-c2noc(CNS(=O)(=O)c4ccccc4)n2)n3CC(F)(F)F)[C@@H](F)C1` [Compound 221B, N-{[3-(4-{[(3S,4R)-3-fluoro-1-methylpiperidin-4-yl]amino}-1-(2,2,2-trifluoroethyl)-1H-indol-2-yl)-1,2,4-oxadiazol-5-yl]methyl}benzenesulfonamide], the “Y220C SC150 (μM)” value is “** (** = 0.1 μM ≤ SC150 < 0.5 μM)”.

As for `C[C@H]1C[C@H]1C(=O)NCc1nc(-c2cc3c(NC4CCN(C)CC4)cccc3n2CC(F)(F)F)no1` (racemic) [Compound 158B, (+/−)-(1R,2S)-2-methyl-N-[(3-{4-[(1-methylpiperidin-4-yl)amino]-1-(2,2,2-trifluoroethyl)-1H-indol-2-yl}-1,2,4-oxadiazol-5-yl)methyl]cyclopropane-1-carboxamide], the “Y220C SC150 (μM)” value is on record as “* (* = 0 μM ≤ SC150 < 0.1 μM)”.

For the compound `CC1(n2ccc(C(=O)NCc3nc(-c4cc5c(N[C@@H]6CCOC[C@@H]6F)cccc5n4CC(F)(F)F)no3)c2)CCOCC1` (stereo in doubt) [Compound 491B], the “Y220C SC150 (μM)” value was “* (* = 0 μM ≤ SC150 < 0.1 μM)”.

As to `CO[C@@H]1CCC[C@@H]1n1cc(C(=O)NCc2nc(-c3cc4c(N[C@@H]5CCN(C)C[C@@H]5F)cccc4n3CC(F)(F)F)no2)cn1` (racemic) [Compound 370B], the “Y220C SC150 (μM)” value is “* (* = 0 μM ≤ SC150 < 0.1 μM)”.

On to `CN1CC[C@@H](Nc2cccc3c2cc(-c2ncc(CNC(=O)C4CC4)s2)n3CC(F)(F)F)[C@@H](F)C1` (racemic) [Compound 95B, (+/−)-N-{[2-(4-{[(3R,4S)-3-fluoro-1-methylpiperidin-4-yl]amino}-1-(2,2,2-trifluoroethyl)-1H-indol-2-yl)-1,3-thiazol-5-yl]methyl}cyclopropanecarboxamide], for which the “Y220C SC150 (μM)” value is reported as “* (* = 0 μM ≤ SC150 < 0.1 μM)”.

Take `Cc1c[nH]c2cc(C(=O)NCc3nc(-c4cc5c(N[C@@H]6CCN(C)C[C@@H]6F)cccc5n4CC(F)(F)F)no3)ccc12` [Compound 274B, N-{[3-(4-{[(3S,4R)-3-fluoro-1-methylpiperidin-4-yl]amino}-1-(2,2,2-trifluoroethyl)-1H-indol-2-yl)-1,2,4-oxadiazol-5-yl]methyl}-3-methyl-1H-indole-6-carboxamide]: the “Y220C SC150 (μM)” value is listed as “* (* = 0 μM ≤ SC150 < 0.1 μM)”.

As to `COCC1(c2cc(C(=O)NCc3nc(-c4cc5c(N[C@@H]6CCOC[C@@H]6F)cccc5n4CC(F)(F)F)no3)cs2)CC1` [Compound 507B, N-{[3-(4-{[(3R,4R)-3-fluorooxan-4-yl]amino}-1-(2,2,2-trifluoroethyl)-1H-indol-2-yl)-1,2,4-oxadiazol-5-yl]methyl}-5-[1-(methoxymethyl)cyclopropyl]thiophene-3-carboxamide], the “Y220C SC150 (μM)” value was “* (* = 0 μM ≤ SC150 < 0.1 μM)”.

As to `CN(Cc1ccc(-c2cc3c(NC4CCS(=O)(=O)CC4)cccc3n2CC(F)(F)F)cc1)C(=O)OC(C)(C)C` [Compound 4A, tert-butyl N-[(4-{4-[(1,1-dioxo-1λ^6-thian-4-yl)amino]-1-(2,2,2-trifluoroethyl)-1H-indol-2-yl}phenyl)methyl]-N-methylcarbamate], the “SC150 (μM)” value is on record as “+++ (+++ = 5 μM ≤ SC150 < 10 μM)”.

`CNCc1nnc(-c2cc3c(N[C@@H]4CCN(C)C[C@@H]4F)cccc3n2CC(F)(F)F)s1` (racemic) [Compound 43B, (+/−)-N-[(3R,4S)-3-fluoro-1-methylpiperidin-4-yl]-2-{5-[(methylamino)methyl]-1,3,4-thiadiazol-2-yl}-1-(2,2,2-trifluoroethyl)-1H-indol-4-amine]: the “Y220C SC150 (μM)” value is on record as “**** (**** = 1 μM ≤ SC150 < 10 μM)”.

Regarding `CN1CC[C@@H](Nc2cccc3c2cc(-c2noc(CNc4nccc5c4ccn5C)n2)n3CC(F)(F)F)[C@@H](F)C1` [Compound 454B, N-[(3S,4R)-3-fluoro-1-methylpiperidin-4-yl]-2-{5-[({1-methyl-1H-pyrrolo[3,2-c]pyridin-4-yl}amino)methyl]-1,2,4-oxadiazol-3-yl}-1-(2,2,2-trifluoroethyl)-1H-indol-4-amine], the “Y220C SC150 (μM)” value is “* (* = 0 μM ≤ SC150 < 0.1 μM)”.

For `CN1CC[C@@H](Nc2cccc3c2cc(-c2noc(CNC(=O)[C@@H]4C[C@@H]4C#N)n2)n3CC(F)(F)F)[C@@H](F)C1` (mixture of isomers) [Compound 195B, (1RS,2SR)-2-cyano-N-{[3-(4-{[(3S,4R)-3-fluoro-1-methylpiperidin-4-yl]amino}-1-(2,2,2-trifluoroethyl)-1H-indol-2-yl)-1,2,4-oxadiazol-5-yl]methyl}cyclopropane-1-carboxamide], the “Y220C SC150 (μM)” value is “* (* = 0 μM ≤ SC150 < 0.1 μM)”.

As to `COCC1(c2cc(C(=O)NCc3nc(-c4cc5c(N[C@@H]6CCN(C)C[C@@H]6F)cccc5n4CC(F)(F)F)no3)cs2)CC1` [Compound 488B, N-{[3-(4-{[(3S,4R)-3-fluoro-1-methylpiperidin-4-yl]amino}-1-(2,2,2-trifluoroethyl)-1H-indol-2-yl)-1,2,4-oxadiazol-5-yl]methyl}-5-[1-(methoxymethyl)cyclopropyl]thiophene-3-carboxamide], the “Y220C SC150 (μM)” value is “* (* = 0 μM ≤ SC150 < 0.1 μM)”.

`CN1CC[C@@H](Nc2cccc3c2cc(-c2nnc(CNC(=O)OCc4ccccc4)s2)n3CC(F)(F)F)[C@@H](F)C1` (racemic) [Compound 44B, (+/−)-benzyl N-{[5-(4-{[(3R,4S)-3-fluoro-1-methylpiperidin-4-yl]amino}-1-(2,2,2-trifluoroethyl)-1H-indol-2-yl)-1,3,4-thiadiazol-2-yl]methyl}carbamate]: the “Y220C SC150 (μM)” value was “* (* = 0 μM ≤ SC150 < 0.1 μM)”.

`CN1CC[C@@H](Nc2cccc3c2cc(-c2noc(CNC(=O)c4csc(C5(C)CCOCC5)n4)n2)n3CC(F)(F)F)[C@@H](F)C1` [Compound 474B, N-{[3-(4-{[(3S,4R)-3-fluoro-1-methylpiperidin-4-yl]amino}-1-(2,2,2-trifluoroethyl)-1H-indol-2-yl)-1,2,4-oxadiazol-5-yl]methyl}-2-(4-methyloxan-4-yl)-1,3-thiazole-4-carboxamide]: the “Y220C SC150 (μM)” value is “* (* = 0 μM ≤ SC150 < 0.1 μM)”.

As to `CN1CC[C@@H](Nc2cccc3c2cc(-c2noc(CNC(=O)c4cnc(N5CCOCC5)s4)n2)n3CC(F)(F)F)[C@@H](F)C1` [Compound 453B, N-{[3-(4-{[(3S,4R)-3-fluoro-1-methylpiperidin-4-yl]amino}-1-(2,2,2-trifluoroethyl)-1H-indol-2-yl)-1,2,4-oxadiazol-5-yl]methyl}-2-(morpholin-4-yl)-1,3-thiazole-5-carboxamide], the “Y220C SC150 (μM)” value is on record as “* (* = 0 μM ≤ SC150 < 0.1 μM)”.

Consider `COC1CCC(n2ccc(C(=O)NCc3nc(-c4cc5c(N[C@@H]6CCN(C)C[C@@H]6F)cccc5n4CC(F)(F)F)no3)c2)C1` (stereo in doubt) [Compound 359B, N-{[3-(4-{[(3S,4R)-3-fluoro-1-methylpiperidin-4-yl]amino}-1-(2,2,2-trifluoroethyl)-1H-indol-2-yl)-1,2,4-oxadiazol-5-yl]methyl)-1-[(1R,3S)-3-methoxycyclopentyl]-1H-pyrrole-3-carboxamide], for which the “Y220C SC150 (μM)” value is “* (* = 0 μM ≤ SC150 < 0.1 μM)”.

With `COc1cc(S(C)(=O)=O)ccc1NCc1nnc(-c2cc3c(N[C@H]4CCN(C)C[C@@H]4F)cccc3n2CC(F)(F)F)o1` (racemic) [Compound 123B, (+/−)-N-[(3R,4R)-3-fluoro-1-methylpiperidin-4-yl]-2-(5-{[(4-methanesulfonyl-2-methoxyphenyl)amino]methyl}-1,3,4-oxadiazol-2-yl)-1-(2,2,2-trifluoroethyl)-1H-indol-4-amine], the “Y220C SC150 (μM)” value is “** (** = 0.1 μM ≤ SC150 < 0.5 μM)”.

As to `COCC(C)(C)n1ccc(C(=O)NCc2nc(-c3cc4c(N[C@H]5CN(C)CC[C@H]5F)cccc4n3CC(F)(F)F)no2)c1` [Compound 418B, N-{[3-(4-{[(3S,4R)-4-fluoro-1-methylpiperidin-3-yl]amino}-1-(2,2,2-trifluoroethyl)-1H-indol-2-yl)-1,2,4-oxadiazol-5-yl]methyl}-1-(1-methoxy-2-methylpropan-2-yl)-1H-pyrrole-3-carboxamide], the “Y220C SC150 (μM)” value is given as “* (* = 0 μM ≤ SC150 < 0.1 μM)”.

`CN1CC[C@@H](Nc2cccc3c2cc(-c2ncc(CNc4ccccc4)s2)n3CC(F)(F)F)[C@@H](F)C1` (racemic) [Compound 98B, (+/−)-N-[(3R,4S)-3-fluoro-1-methylpiperidin-4-yl]-2-{5-[(phenylamino)methyl]-1,3-thiazol-2-yl}-1-(2,2,2-trifluoroethyl)-1H-indol-4-amine]: the “Y220C SC150 (μM)” value is listed as “* (* = 0 μM ≤ SC150 < 0.1 μM)”.

With `O=C(NCc1ccc(-c2cc3c(NC4CCS(=O)(=O)CC4)cccc3n2CC(F)(F)F)cc1)c1ccc(Cl)cc1` [Compound 17A, 4-chloro-N-[(4-{4-[(1,1-dioxo-1λ^6-thian-4-yl)amino]-1-(2,2,2-trifluoroethyl)-1H-indol-2-yl}phenyl)methyl]benzamide], the “SC150 (μM)” value was “++ (++ = 2 μM ≤ SC150 < 5 μM)”.

`CN1CC[C@@H](Nc2cccc3c2cc(-c2cc(CNC(=O)c4ccn(C(C)(C)C)c4)cs2)n3CC(F)(F)F)[C@@H](F)C1` [Compound 283B, 1-tert-butyl-N-{[5-(4-{[(3S,4R)-3-fluoro-1-methylpiperidin-4-yl]amino}-1-(2,2,2-trifluoroethyl)-1H-indol-2-yl)thiophen-3-yl]methyl}-1H-pyrrole-3-carboxamide]: the “Y220C SC150 (μM)” value is “** (** = 0.1 μM ≤ SC150 < 0.5 μM)”.

Regarding `Cc1ccc(-c2cc3c(NC4CCS(=O)(=O)CC4)cccc3n2CC(F)(F)F)c(F)c1` [Compound 11A, 4-{[2-(2-fluoro-4-methylphenyl)-1-(2,2,2-trifluoroethyl)-1H-indol-4-yl]amino}-1λ^6-thiane-1,1-dione], the “SC150 (μM)” value is listed as “++++ (++++ = 10 μM ≤ SC150 < 35 μM)”.
